Test results published in US10654834B2 (Venenum Biodesign, LLC, priority 2016, dated 2020).

Legend:
mouse TGR5 receptor [1] = biological target: T1, mouse TGR5 receptor (Mus musculus, UniProt Q80SS6); test: Mouse TGR5 luminescent cAMP production assay (HEK293-EBNA cells, DiscoveRx cAMP XS+ kit); type: cell-based; details: HEK293-EBNA cells overexpressing mouse TGR5, luminescent cAMP assay; read-out: Mouse TGR5 Lum. cAMP Activity (EC50)
T1 construct: host or cells: HEK293-EBNA (293 c18, ATCC CRL10852)
T1 sequence (Q80SS6 1-329): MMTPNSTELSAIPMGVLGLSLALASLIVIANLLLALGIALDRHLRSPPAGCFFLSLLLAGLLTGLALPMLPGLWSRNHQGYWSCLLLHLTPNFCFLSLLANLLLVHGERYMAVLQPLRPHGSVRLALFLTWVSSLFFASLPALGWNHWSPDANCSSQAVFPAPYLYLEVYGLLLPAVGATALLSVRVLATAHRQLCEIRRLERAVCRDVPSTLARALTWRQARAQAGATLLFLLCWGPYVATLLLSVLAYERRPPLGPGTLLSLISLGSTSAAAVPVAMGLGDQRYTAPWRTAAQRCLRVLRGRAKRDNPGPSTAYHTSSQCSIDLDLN
Procedure, shortened: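 HEK293-EBNA cells stably expressing mouse TGR5, resuspended in serum-free DMEM with 500 μM IBMX, were premixed 20 min with cAMP antibody, then exposed to half-log compound dilutions for 1 h at room temperature. cAMP was read by luminescent enzyme-fragment complementation (cAMP XS+) after overnight incubation; EC50 derived.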

[2] = Pharmacokinetic profile in mice after oral gavage; type: in vivo, mouse; details: mouse; fasted male Hilltop mice, 10 mg/kg oral gavage, plasma; read-out: Cmax
Procedure, shortened: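 Plasma exposure (Cmax, AUC) by non-compartmental analysis of LC-MS/MS data, orbital blood taken at 0, 0.25, 0.5, 1, 2 and 4 h, each value averaging three mice. Dosing: 10 mg/kg oral gavage to overnight-fasted male Hilltop mice (8 weeks), vehicle PEG400/CMC/Tween-80.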

mouse TGR5 receptor [3] = biological target: T1, mouse TGR5 receptor; test: Mouse TGR5 HTRF cAMP production assay (HEK293-EBNA cells, Cisbio cAMP HiRange kit); type: cell-based; details: HEK293-EBNA cells overexpressing mouse TGR5, HTRF cAMP assay
Procedure, shortened: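 cAMP accumulation was read by competitive HTRF after 1 h room-temperature compound treatment, with a further 1 h conjugate incubation. Cells were mouse TGR5-overexpressing HEK293-EBNA in serum-free DMEM plus 500 μM IBMX. Compounds ran as 12-point half-log series in duplicate, and EC50 values were reported.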

| Compound | EC50 (mouse TGR5 receptor [1]) | Cmax [2] | EC50 (mouse TGR5 receptor [3]) |
| --- | --- | --- | --- |
| N#Cc1ccc(CCNC(=O)[C@@H]2CCN2c2cc(N3CCC(CO)CC3)nc(C(F)(F)F)n2)cc1 [Compound 219, (S)—N-(4-cyanophenethyl)-1-(6-(4-(hydroxymethyl)piperidin-1-yl)-2-(trifluoromethyl)pyrimidin-4-yl)azetidine-2-carboxamide] | < 0.1 µM | 75 ng/mL |  |
| COCC1CCN(c2cc(N3CCC[C@H]3C(=O)NCCc3ccc(C#N)cc3)nc(C(F)(F)F)n2)CC1 [Compound 24] | < 0.1 µM | 970 ng/mL |  |
| N#Cc1ccc(CCNC(=O)[C@@H]2CCN2c2cc(N3CCC(CCO)CC3)nc(C(F)(F)F)n2)cc1 [Compound 223, (S)-N-(4-cyanophenethyl)-1-(6-(4-(2-hydroxyethyl)piperidin-1-yl)-2-(trifluoromethyl)pyrimidin-4-yl)azetidine-2-carboxamide] | < 0.1 µM | 44 ng/mL | < 0.1 µM |
| N#Cc1ccc(CCNC(=O)[C@@H]2CCCN2c2cc(-c3ccc(CO)cc3)cc(C(F)(F)F)n2)cc1 [Compound 204, (S)—N-(4-cyanophenethyl)-1-(4-(4-(hydroxymethyl)phenyl)-6-(trifluoromethyl)pyridin-2-yl)pyrrolidine-2-carboxamide] |  | 4.4 ng/mL | < 0.1 µM |
| O=C(O)CCC1CCN(c2cc(N3CC[C@H]3C(=O)NCCc3ccc(C(F)(F)F)cc3)nc(C(F)(F)F)n2)CC1 [Compound 232, (S)-3-(1-(2-(trifluoromethyl)-6-(2-((4-(trifluoromethyl)phenethyl)carbamoyl)azetidin-1-yl)pyrimidin-4-yl)piperidin-4-yl)propanoic acid] |  | 64 ng/mL | < 0.1 µM |
| N#Cc1ccc(CCNC(=O)[C@@H]2CCCN2c2cc(N3CCC(CCNc4c(NCP(=O)(O)O)c(=O)c4=O)CC3)nc(C(F)(F)F)n2)cc1 [Compound 369, (S)-(((2-((2-(1-(6-(2-((4-cyanophenethyl)carbamoyl)pyrrolidin-1-yl)-2-(trifluoromethyl)pyrimidin-4-yl)piperidin-4-yl)ethyl)amino)-3,4-dioxocyclobut-1-en-1-yl)amino)methyl)phosphonic acid] |  | 1.7 ng/mL | < 0.1 µM |
| N#Cc1ccc(CCNC(=O)[C@@H]2CCCN2c2cc(N3CCC(CCNS(=O)(=O)CCNC(=N)N)CC3)nc(C(F)(F)F)n2)cc1 [Compound 130, (S)-N-(4-cyanophenethyl)-1-(6-(4-(2-(2-guanidinoethylsulfonamido)ethyl)piperidin-1-yl)-2-(trifluoromethyl)pyrimidin-4-yl)pyrrolidine-2-carboxamide] |  | 2.8 ng/mL | < 0.1 µM |

Continued, values first:

| EC50 (mouse TGR5 receptor [1]) | Cmax [2] | EC50 (mouse TGR5 receptor [3]) | Compound |
| --- | --- | --- | --- |
| < 0.1 µM | 18 ng/mL |  | N#Cc1ccc(CCNC(=O)[C@@H]2CCCN(c3cc(N4CCC(CO)CC4)nc(C(F)(F)F)n3)C2)cc1 [Compound 308, (R)—N-(4-cyanophenethyl)-1-(6-(4-(hydroxymethyl)piperidin-1-yl)-2-(trifluoromethyl)pyrimidin-4-yl)piperidine-3-carboxamide] |
| < 0.1 µM | 214 ng/mL |  | N#Cc1ccc(CCNC(=O)[C@@H]2CCCN2c2cc(N3CCC(CCN)CC3)nc(C(F)(F)F)n2)cc1 [Compound 50, (S)-1-(6-(4-(2-aminoethyl)piperidin-1-yl)-2-(trifluoromethyl)pyrimidin-4-yl)-N-(4-cyanophenethyl)pyrrolidine-2-carboxamide] |
| < 0.1 µM | 171 ng/mL |  | N#Cc1ccc(CCNC(=O)[C@@H]2CCCN2c2cc(N3CCC(CCO)CC3)nc(C(F)(F)F)n2)cc1 [Compound 22] |
|  | 1.3 ng/mL | < 0.1 µM | N#Cc1ccc(CCNC(=O)[C@@H]2CCCN2c2cc(N3CCC(CCCC(=O)NCCCS(=O)(=O)O)CC3)nc(C(F)(F)F)n2)cc1 [Compound 63, (S)-3-(4-(1-(6-(2-((4-cyanophenethyl)carbamoyl)pyrrolidin-1-yl)-2-(trifluoromethyl)pyrimidin-4-yl)-piperidin-4-yl)butanamido)propane-1-sulfonic acid] |
|  | 235 ng/mL | < 0.1 µM | N#Cc1ccc(CCNC(=O)[C@@H]2CCCN2c2cc(N3CCC(CCCNC(=O)NCC(=O)O)CC3)nc(C(F)(F)F)n2)cc1 [Compound 121, (S)-2-(3-(3-(1-(6-(2-((4-cyanophenethyl)carbamoyl)pyrrolidin-1-yl)-2-(trifluoromethyl)pyrimidin-4-yl)piperidin-4-yl)propyl)ureido)acetic acid] |
|  | 0.13 ng/mL | < 0.1 µM | N#Cc1ccc(CCNC(=O)[C@@H]2CCCN2c2cc(N3CCC(CCNC(=O)NCCC(=O)NCCS(=O)(=O)O)CC3)nc(C(F)(F)F)n2)cc1 [Compound 113, (S)-2-(3-(3-(2-(1-(6-(2-((4-cyanophenethyl)carbamoyl)pyrrolidin-1-yl)-2-(trifluromethyl)pyrimidin-4-yl)piperidin-4-yl)ethyl)ureido)-propanamido)-ethanesulfonic acid] |
